From US11439627B2, “Pharmaceutical composition for the treatment of autism” (Stalicla S.A., priority 2017, dated 2022)

Legend:
[1] = system: patients with autism spectrum disorder classified as Phenotype 1; experiment: ADI-r scores of ASD phenotype 1 patients under treatment; type: in vivo, human; details: after four weeks of ibudilast 0.6 mg/kg daily total, TID
Protocol: A pharmaceutical composition comprising ibudilast and bumetanide was administered to patients with a diagnosis of autism spectrum disorder as defined in the DSM-5, or PDD-NOS or Asperger syndrome as defined in the DSM-IV. Eligibility criteria: male sex, age 5-50, no current chronic illness, no history of active seizures within 1 year, normal liver, renal and thyroid function. Concomitant medications were permitted if doses were stable for at least 60 days prior to the initiation of the challenge test. Patients with no syndromic or identified genetic etiology. […] Description: Four of the patients characterized as above were administered ibudilast. The four subjects had varying levels of functioning ranging from mild to severe, and varying different levels of verbal and intellectual abilities. IQ values ranged from 61 to 86. All were males. Four patients were treated with ibudilast at a daily total dosage of 0.6 mg/kg, TID. A new treatment regimen was introduced, this time ibudilast at a daily total dosage of 0.6 mg/kg, TID, was administered in conjunction with bumetanide at a daily total dosage of 0.08 mg/kg, BID (with a maximum upper daily dose of […]).

[2] = single dose of 10 mg, healthy adults, in 72 hours; cited from earlier work

Compound: CC(C)C(=O)c1c(C(C)C)nn2ccccc12 [ibudilast]
- ADI-r RI ([1]; Patient 1, baseline 7): 6
- ADI-r C ([1]; Patient 1, baseline 24): 20
- ADI-r SI ([1]; Patient 1, baseline 28): 21
- ADI-r RI ([1]; Patient 2, baseline 5): 5
- ADI-r C ([1]; Patient 2, baseline 19): 15
- ADI-r SI ([1]; Patient 2, baseline 20): 16
- ADI-r RI ([1]; Patient 3, baseline 7): 5
- ADI-r SI ([1]; Patient 3, baseline 14): 12
- ADI-r C ([1]; Patient 3, baseline 18): 14
- ADI-r RI ([1]; Patient 4, baseline 7): 7
- ADI-r C ([1]; Patient 4, baseline 17): 14
- ADI-r SI ([1]; Patient 4, baseline 27): 22
- dose excreted as metabolites in urine [2]: about 60%
